Patent US8802597B2, “Herbicidal pyrimidines” (E I du Pont de Nemours and Company, priority 2003, dated 2014)

What was measured:
Experiment in all cases: Test D pre/postemergence
Format in all cases: in vivo
Conditions in all cases: scale 0 to 100 (100 = complete control)
[1] = test system: wild mustard (Sinapis arvensis)
In short: (§1)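 Responses are visual ratings on a 0 to 100 scale, with 100 meaning complete control, taken 15 to 25 days after treatment in a controlled growth environment. Applications were pre- and postemergence (1- to 4-leaf plants) using a non-phytotoxic solvent formulation with surfactant.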

[2] = test system: Russian thistle (Salsola kali)
In short: as §1

[3] = test system: wheat (Triticum aestivum)
In short: as §1

[4] = test system: wild buckwheat (Polygonum convolvulus)
In short: as §1

[5] = test system: lambsquarters (Chenopodium album)
In short: as §1

[6] = test system: kochia (Kochia scoparia)
In short: as §1

[7] = test system: common chickweed (Stellaria media)
In short: as §1

COC(=O)c1nc(C2CC2C)nc(N)c1Br (stereo not shown) [Compound 28]
Plant response rating, Mustard, Wild ([1]; Postemergence, 62 g ai/ha): 45 | Plant response rating, Mustard, Wild ([1]; Postemergence, 125 g ai/ha): 60 | Plant response rating, Mustard, Wild ([1]; Postemergence, 250 g ai/ha): 60 | Plant response rating, Mustard, Wild ([1]; Preemergence, 62 g ai/ha): 60 | Plant response rating, Mustard, Wild ([1]; Preemergence, 125 g ai/ha): 60 | Plant response rating, Mustard, Wild ([1]; Preemergence, 250 g ai/ha): 60 | Plant response rating, Russian Thistle ([2]; Postemergence, 62 g ai/ha): 65 | Plant response rating, Russian Thistle ([2]; Postemergence, 125 g ai/ha): 70 | Plant response rating, Russian Thistle ([2]; Postemergence, 250 g ai/ha): 70 | Plant response rating, Russian Thistle ([2]; Preemergence, 62 g ai/ha): 45 | Plant response rating, Russian Thistle ([2]; Preemergence, 125 g ai/ha): 80 | Plant response rating, Russian Thistle ([2]; Preemergence, 250 g ai/ha): 100 | Plant response rating, Wheat ([3]; Postemergence, 62 g ai/ha): 20 | Plant response rating, Wheat ([3]; Postemergence, 125 g ai/ha): 35 | Plant response rating, Wheat ([3]; Postemergence, 250 g ai/ha): 35 | Plant response rating, Wheat ([3]; Preemergence, 62 g ai/ha): 20 | Plant response rating, Wheat ([3]; Preemergence, 125 g ai/ha): 35 | Plant response rating, Wheat ([3]; Preemergence, 250 g ai/ha): 35 | Plant response rating, Buckwheat, Wild ([4]; Postemergence, 62 g ai/ha): 35 | Plant response rating, Buckwheat, Wild ([4]; Postemergence, 125 g ai/ha): 55 | Plant response rating, Buckwheat, Wild ([4]; Postemergence, 250 g ai/ha): 60 | Plant response rating, Buckwheat, Wild ([4]; Preemergence, 62 g ai/ha): 45 | Plant response rating, Buckwheat, Wild ([4]; Preemergence, 125 g ai/ha): 45 | Plant response rating, Buckwheat, Wild ([4]; Preemergence, 250 g ai/ha): 60 | Plant response rating, Lambsquarters ([5]; Postemergence, 62 g ai/ha): 65 | Plant response rating, Lambsquarters ([5]; Postemergence, 125 g ai/ha): 70 | Plant response rating, Lambsquarters ([5]; Postemergence, 250 g ai/ha): 75 | Plant response rating, Lambsquarters ([5]; Preemergence, 62 g ai/ha): 60 | Plant response rating, Lambsquarters ([5]; Preemergence, 125 g ai/ha): 60 | Plant response rating, Lambsquarters ([5]; Preemergence, 250 g ai/ha): 60 | Plant response rating, Kochia ([6]; Postemergence, 62 g ai/ha): 70 | Plant response rating, Kochia ([6]; Postemergence, 125 g ai/ha): 75 | Plant response rating, Kochia ([6]; Postemergence, 250 g ai/ha): 75 | Plant response rating, Kochia ([6]; Preemergence, 62 g ai/ha): 45 | Plant response rating, Kochia ([6]; Preemergence, 125 g ai/ha): 80 | Plant response rating, Kochia ([6]; Preemergence, 250 g ai/ha): 100 | Plant response rating, Chickweed ([7]; Postemergence, 62 g ai/ha): 65 | Plant response rating, Chickweed ([7]; Postemergence, 125 g ai/ha): 65 | Plant response rating, Chickweed ([7]; Postemergence, 250 g ai/ha): 65 | Plant response rating, Chickweed ([7]; Preemergence, 62 g ai/ha): 60 | Plant response rating, Chickweed ([7]; Preemergence, 125 g ai/ha): 60 | Plant response rating, Chickweed ([7]; Preemergence, 250 g ai/ha): 60

CCOC(=O)Cc1nc(C2CC2)nc(N=CN(C)C)c1Br [Compound 33]
Plant response rating, Mustard, Wild ([1]; Postemergence, 62 g ai/ha): 50 | Plant response rating, Mustard, Wild ([1]; Postemergence, 125 g ai/ha): 50 | Plant response rating, Mustard, Wild ([1]; Postemergence, 250 g ai/ha): 50 | Plant response rating, Mustard, Wild ([1]; Preemergence, 62 g ai/ha): 65 | Plant response rating, Mustard, Wild ([1]; Preemergence, 125 g ai/ha): 65 | Plant response rating, Mustard, Wild ([1]; Preemergence, 250 g ai/ha): 65 | Plant response rating, Russian Thistle ([2]; Postemergence, 62 g ai/ha): 30 | Plant response rating, Russian Thistle ([2]; Postemergence, 125 g ai/ha): 40 | Plant response rating, Russian Thistle ([2]; Postemergence, 250 g ai/ha): 40 | Plant response rating, Russian Thistle ([2]; Preemergence, 62 g ai/ha): 55 | Plant response rating, Russian Thistle ([2]; Preemergence, 125 g ai/ha): 60 | Plant response rating, Russian Thistle ([2]; Preemergence, 250 g ai/ha): 85 | Plant response rating, Wheat ([3]; Postemergence, 62 g ai/ha): 35 | Plant response rating, Wheat ([3]; Postemergence, 125 g ai/ha): 40 | Plant response rating, Wheat ([3]; Postemergence, 250 g ai/ha): 45 | Plant response rating, Wheat ([3]; Preemergence, 62 g ai/ha): 15 | Plant response rating, Wheat ([3]; Preemergence, 125 g ai/ha): 35 | Plant response rating, Wheat ([3]; Preemergence, 250 g ai/ha): 55 | Plant response rating, Buckwheat, Wild ([4]; Postemergence, 62 g ai/ha): 40 | Plant response rating, Buckwheat, Wild ([4]; Postemergence, 125 g ai/ha): 50 | Plant response rating, Buckwheat, Wild ([4]; Postemergence, 250 g ai/ha): 55 | Plant response rating, Buckwheat, Wild ([4]; Preemergence, 62 g ai/ha): 55 | Plant response rating, Buckwheat, Wild ([4]; Preemergence, 125 g ai/ha): 65 | Plant response rating, Buckwheat, Wild ([4]; Preemergence, 250 g ai/ha): 65 | Plant response rating, Lambsquarters ([5]; Postemergence, 62 g ai/ha): 30 | Plant response rating, Lambsquarters ([5]; Postemergence, 125 g ai/ha): 30 | Plant response rating, Lambsquarters ([5]; Postemergence, 250 g ai/ha): 45 | Plant response rating, Lambsquarters ([5]; Preemergence, 62 g ai/ha): 60 | Plant response rating, Lambsquarters ([5]; Preemergence, 125 g ai/ha): 65 | Plant response rating, Lambsquarters ([5]; Preemergence, 250 g ai/ha): 65 | Plant response rating, Kochia ([6]; Postemergence, 62 g ai/ha): 50 | Plant response rating, Kochia ([6]; Postemergence, 125 g ai/ha): 50 | Plant response rating, Kochia ([6]; Postemergence, 250 g ai/ha): 50 | Plant response rating, Kochia ([6]; Preemergence, 62 g ai/ha): 60 | Plant response rating, Kochia ([6]; Preemergence, 125 g ai/ha): 65 | Plant response rating, Kochia ([6]; Preemergence, 250 g ai/ha): 65 | Plant response rating, Chickweed ([7]; Postemergence, 62 g ai/ha): 40 | Plant response rating, Chickweed ([7]; Postemergence, 125 g ai/ha): 50 | Plant response rating, Chickweed ([7]; Postemergence, 250 g ai/ha): 60 | Plant response rating, Chickweed ([7]; Preemergence, 250 g ai/ha): 65

COC(=O)c1nc(C2CC2)nc(NO)c1Br [Compound 35]
Plant response rating, Mustard, Wild ([1]; Postemergence, 62 g ai/ha): 75 | Plant response rating, Mustard, Wild ([1]; Postemergence, 125 g ai/ha): 75 | Plant response rating, Mustard, Wild ([1]; Postemergence, 250 g ai/ha): 75 | Plant response rating, Mustard, Wild ([1]; Preemergence, 62 g ai/ha): 65 | Plant response rating, Mustard, Wild ([1]; Preemergence, 125 g ai/ha): 70 | Plant response rating, Mustard, Wild ([1]; Preemergence, 250 g ai/ha): 75 | Plant response rating, Russian Thistle ([2]; Postemergence, 62 g ai/ha): 100 | Plant response rating, Russian Thistle ([2]; Postemergence, 125 g ai/ha): 100 | Plant response rating, Russian Thistle ([2]; Postemergence, 250 g ai/ha): 100 | Plant response rating, Russian Thistle ([2]; Preemergence, 62 g ai/ha): 85 | Plant response rating, Russian Thistle ([2]; Preemergence, 125 g ai/ha): 100 | Plant response rating, Russian Thistle ([2]; Preemergence, 250 g ai/ha): 100 | Plant response rating, Wheat ([3]; Postemergence, 62 g ai/ha): 0 | Plant response rating, Wheat ([3]; Postemergence, 125 g ai/ha): 65 | Plant response rating, Wheat ([3]; Postemergence, 250 g ai/ha): 70 | Plant response rating, Wheat ([3]; Preemergence, 62 g ai/ha): 35 | Plant response rating, Wheat ([3]; Preemergence, 125 g ai/ha): 40 | Plant response rating, Wheat ([3]; Preemergence, 250 g ai/ha): 50 | Plant response rating, Buckwheat, Wild ([4]; Postemergence, 62 g ai/ha): 60 | Plant response rating, Buckwheat, Wild ([4]; Postemergence, 125 g ai/ha): 70 | Plant response rating, Buckwheat, Wild ([4]; Postemergence, 250 g ai/ha): 80 | Plant response rating, Buckwheat, Wild ([4]; Preemergence, 62 g ai/ha): 55 | Plant response rating, Buckwheat, Wild ([4]; Preemergence, 125 g ai/ha): 60 | Plant response rating, Buckwheat, Wild ([4]; Preemergence, 250 g ai/ha): 65 | Plant response rating, Lambsquarters ([5]; Postemergence, 62 g ai/ha): 100 | Plant response rating, Lambsquarters ([5]; Postemergence, 125 g ai/ha): 100 | Plant response rating, Lambsquarters ([5]; Postemergence, 250 g ai/ha): 100 | Plant response rating, Lambsquarters ([5]; Preemergence, 62 g ai/ha): 65 | Plant response rating, Lambsquarters ([5]; Preemergence, 125 g ai/ha): 75 | Plant response rating, Lambsquarters ([5]; Preemergence, 250 g ai/ha): 80 | Plant response rating, Kochia ([6]; Postemergence, 62 g ai/ha): 80 | Plant response rating, Kochia ([6]; Postemergence, 125 g ai/ha): 85 | Plant response rating, Kochia ([6]; Postemergence, 250 g ai/ha): 85 | Plant response rating, Kochia ([6]; Preemergence, 62 g ai/ha): 75 | Plant response rating, Kochia ([6]; Preemergence, 125 g ai/ha): 100 | Plant response rating, Kochia ([6]; Preemergence, 250 g ai/ha): 100 | Plant response rating, Chickweed ([7]; Postemergence, 62 g ai/ha): 80 | Plant response rating, Chickweed ([7]; Postemergence, 125 g ai/ha): 80 | Plant response rating, Chickweed ([7]; Postemergence, 250 g ai/ha): 85 | Plant response rating, Chickweed ([7]; Preemergence, 62 g ai/ha): 60 | Plant response rating, Chickweed ([7]; Preemergence, 125 g ai/ha): 100 | Plant response rating, Chickweed ([7]; Preemergence, 250 g ai/ha): 100
